IC50 data for 13 molecules are collected here from patent publication US20050282818A1, “Ubiquitin ligase inhibitors” (Rigel Pharmaceuticals, Inc., priority 2004, published 2005).

The structures appear in SMILES notation. Where two headings read alike, the source gives them in different places. Some results are limits rather than exact numbers.

The test system of one assay is H1299 cells. Description: Cell proliferation PAD assay, H1299. The class given is cell-based. The settings on record: Homo sapiens, 48 hours. The procedure, abridged:
(§1)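 Cells were seeded at 2,000 per well and dosed 24 h later, in duplicate, with 6.3-fold dilution series from a 10 mM master stock diluted 500-fold into wells. After 48 h at 37 °C, 5% CO2, cells were formamide-fixed, DAPI-stained and imaged to count live, apoptotic and dead cells.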

The next assay concerns A549 cells. The assay is described as follows: Cell proliferation PAD assay, A549. The class given is cell-based. The settings on record: Homo sapiens, 48 hours. An outline of the steps:
as §1

In the next assay the target is T1, TRAF6/Uev1A/Ubc13 (Homo sapiens, UniProt Q9Y4K3).
T1 sequence (Q9Y4K3 1-522): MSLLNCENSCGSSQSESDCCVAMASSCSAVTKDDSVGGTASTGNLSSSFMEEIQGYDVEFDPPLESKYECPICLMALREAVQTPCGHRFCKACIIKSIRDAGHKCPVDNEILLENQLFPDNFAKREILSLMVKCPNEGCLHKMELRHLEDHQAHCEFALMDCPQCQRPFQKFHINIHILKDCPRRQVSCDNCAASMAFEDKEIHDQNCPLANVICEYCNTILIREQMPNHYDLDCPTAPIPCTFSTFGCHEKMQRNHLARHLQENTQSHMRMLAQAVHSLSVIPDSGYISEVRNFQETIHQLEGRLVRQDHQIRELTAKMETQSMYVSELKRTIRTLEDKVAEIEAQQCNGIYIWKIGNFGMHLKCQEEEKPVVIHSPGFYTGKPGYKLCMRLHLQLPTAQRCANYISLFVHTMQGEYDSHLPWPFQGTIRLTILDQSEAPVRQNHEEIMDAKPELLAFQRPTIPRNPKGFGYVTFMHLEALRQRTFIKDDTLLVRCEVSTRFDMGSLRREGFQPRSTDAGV
Description: TRAF6/Uev1A/Ubc13 plate-based ubiquitin ligase assay. The class given is biochemical. An outline of the steps: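 Ligase activity was read as luminescence from anti-Flag/HRP detection of Flag-ubiquitin bound to casein-blocked Ni-plates alongside His-ubiquitin after a 1 h room-temperature reaction. Buffer: 62.5 mM Tris pH 7.5, 6.25 mM MgCl2, 1.0 mM DTT, 2 μM ATP; E1, Uev1a/Ubc13 and TRAF6 added last to start. IC50s derived across compound concentrations.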

[1] abbreviates: NCI-H1299, 3pt, read-out: H1299 3pt.
The mark [2] stands for this setting: NCI-H1299, 6pt, read-out: H1299 6pt.

`O=S(=O)(Nc1ccc2[nH]ncc2c1)c1ccc(Sc2cccc3cccnc23)c2nonc12` [compound 224, N-1H-indazol-5-yl-7-(quinolin-8-ylthio)-2,1,3-benzoxadiazole-4-sulfonamide]: the IC50 in the assay with H1299 cells (setting [1]) was not below 20 µM; in the assay with A549 cells (3pt, read-out: A549 3pt), 1 to 20 µM; against TRAF6/Uev1A/Ubc13 it was not below 20 µM.
Consider `O=S(=O)(c1ccc(Cl)c2nonc12)N1CCC(Oc2ccccc2C(F)(F)F)CC1` [compound 230, 4-chloro-7-({4-[2-(trifluoromethyl)phenoxy]piperidin-1-yl}sulfonyl)-2,1,3-benzoxadiazole], for which the IC50 in the assay on H1299 cells (setting [1]) fell in the range of 1 to 20 µM; in the assay on A549 cells (3pt, read-out: A549 3pt), 1 to 20 µM; at TRAF6/Uev1A/Ubc13, 1 to 20 µM.
Take `CC(=O)C1(c2ccccc2)CCN(c2ccc([N+](=O)[O-])c3nonc23)CC1` [compound 231, 1-[1-(7-nitro-2,1,3-benzoxadiazol-4-yl)-4-phenylpiperidin-4-yl]ethanone]: the IC50 was 1 to 20 µM in the assay with H1299 cells (setting [1]); not below 20 µM in the assay on A549 cells (3pt, read-out: A549 3pt); 1 to 20 µM against TRAF6/Uev1A/Ubc13.
For the molecule `O=S(=O)(c1ccc(F)c2nonc12)N1CCC(Oc2ccccc2C(F)(F)F)CC1` [compound 232, 4-fluoro-7-({4-[2-(trifluoromethyl)phenoxy]piperidin-1-yl}sulfonyl)-2,1,3-benzoxadiazole], the IC50 in the assay with H1299 cells (setting [1]) lay within 1 to 20 µM; in the assay on A549 cells (3pt, read-out: A549 3pt), 1 to 20 µM; against TRAF6/Uev1A/Ubc13, 1 to 20 µM.
In the case of `O=[N+]([O-])c1ccc(N2CCC(Oc3ccccc3C(F)(F)F)CC2)c2nonc12` [compound 233, 4-nitro-7-{4-[2-(trifluoromethyl)phenoxy]piperidin-1-yl}-2,1,3-benzoxadiazole], the IC50 in the assay with H1299 cells (setting [1]) is not below 20 µM; with A549 cells (3pt, read-out: A549 3pt), not below 20 µM; on TRAF6/Uev1A/Ubc13, less than 1 µM.
With `O=S(=O)(c1cccc2nonc12)N1CCC(Oc2ncccn2)CC1` [compound 235], the IC50 in the assay on H1299 cells (setting [1]) is not below 20 µM; with A549 cells (3pt, read-out: A549 3pt), not below 20 µM; against TRAF6/Uev1A/Ubc13, not below 20 µM.
On to `CC1(C)CCN(c2ccc([N+](=O)[O-])c3nonc23)CC1` [compound 242, 4-(4,4-dimethylpipendin-1-yl)-7-nitro-2,1,3-benzoxadiazole], for which the IC50 was not below 20 µM in the assay with H1299 cells (setting [2]); not below 20 µM in the assay on A549 cells (6pt, read-out: A549 6pt); not below 20 µM against TRAF6/Uev1A/Ubc13.
`CC1(C)CCN(S(=O)(=O)c2ccc(F)c3nonc23)CC1` [compound 243, 4-[(4,4-dimethylpiperidin-1-yl)sulfonyl]-7-fluoro-2,1,3-benzoxadiazole]: the IC50 in the assay on H1299 cells (setting [2]) was not below 20 µM; with A549 cells (6pt, read-out: A549 6pt), less than 1 µM; against TRAF6/Uev1A/Ubc13, not below 20 µM.
With `O=S(=O)(c1ccc(Sc2ccncc2)c2nonc12)N1CCC(O)(c2ccc(Cl)cc2)CC1` [compound 246, 4-(4-chlorophenyl)-1-{[7-(pyridin-4-ylthio)-2,1,3-benzoxadiazol-4-yl]sulfonyl}piperidin-4-ol], the IC50 in the assay on H1299 cells (setting [2]) was 1 to 20 µM; in the assay on A549 cells (6pt, read-out: A549 6pt), not below 20 µM; at TRAF6/Uev1A/Ubc13 it was 1 to 20 µM.
For the molecule `O=C(OCc1ccccc1)N1CCN(c2ccc([N+](=O)[O-])c3nonc23)CC1` [compound 278, benzyl 4-(7-nitro-2,1,3-benzoxadiazol-4-yl)piperazine-1-carboxylate], the IC50 in the assay with H1299 cells (setting [1]) was 1 to 20 µM; in the assay on A549 cells (3pt, read-out: A549 3pt), 1 to 20 µM; on TRAF6/Uev1A/Ubc13 it was not below 20 µM.
For the molecule `Nc1ccc(N2CCN(c3ncc(C(F)(F)F)cc3Cl)CC2)c2nonc12` [compound 279, 7-{4-[3-chloro-5-(trifluoromethyl)pyridin-2-yl]piperazin-1-yl}-2,1,3-benzoxadiazol-4-amine], the IC50 with H1299 cells (setting [1]) was 1 to 20 µM; in the assay on A549 cells (3pt, read-out: A549 3pt), 1 to 20 µM; at TRAF6/Uev1A/Ubc13, not below 20 µM.
For `O=[N+]([O-])c1ccc(N2CCC(Oc3ncccn3)CC2)c2nonc12` [compound 280, 4-nitro-7-[4-(pyrimidin-2-yloxy)piperidin-1-yl]-2,1,3-benzoxadiazole], the IC50 with H1299 cells (setting [1]) is not below 20 µM; in the assay on A549 cells (3pt, read-out: A549 3pt), not below 20 µM; on TRAF6/Uev1A/Ubc13, not below 20 µM.
`O=[N+]([O-])c1ccc(N2CCC(c3ccncc3)CC2)c2nonc12` [compound 283, 4-nitro-7-(4-pyridin-4-ylpiperidin-1-yl)-2,1,3-benzoxadiazole]: the IC50 is not below 20 µM in the assay with H1299 cells (setting [1]); not below 20 µM in the assay with A549 cells (3pt, read-out: A549 3pt); not below 20 µM on TRAF6/Uev1A/Ubc13.
